The assay addresses T1, Acetylcholinesterase (Rattus norvegicus, UniProt P37136).
T1 sequence (P37136 whole entry): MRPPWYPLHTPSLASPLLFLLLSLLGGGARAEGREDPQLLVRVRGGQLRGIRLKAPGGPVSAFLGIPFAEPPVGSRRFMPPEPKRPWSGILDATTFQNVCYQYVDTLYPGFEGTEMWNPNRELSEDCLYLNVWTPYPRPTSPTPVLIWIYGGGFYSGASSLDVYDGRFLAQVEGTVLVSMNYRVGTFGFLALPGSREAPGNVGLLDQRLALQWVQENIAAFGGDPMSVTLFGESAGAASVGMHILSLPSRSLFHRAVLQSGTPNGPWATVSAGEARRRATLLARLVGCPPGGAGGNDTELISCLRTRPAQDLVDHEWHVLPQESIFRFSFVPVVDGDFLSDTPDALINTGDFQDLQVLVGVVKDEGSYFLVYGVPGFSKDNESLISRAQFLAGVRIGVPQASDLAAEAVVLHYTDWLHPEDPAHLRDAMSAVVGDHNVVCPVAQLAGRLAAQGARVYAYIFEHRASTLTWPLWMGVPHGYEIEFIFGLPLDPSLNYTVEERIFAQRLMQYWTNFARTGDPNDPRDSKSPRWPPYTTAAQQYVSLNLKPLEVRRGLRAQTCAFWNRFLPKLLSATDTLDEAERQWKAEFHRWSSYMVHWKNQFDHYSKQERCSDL
The experiment in a line: Inhibition concentration against rat acetylcholinesterase.
The compound `CN(CCCCCN1C(=O)c2ccc([N+](=O)[O-])cc2C1=O)Cc1ccccc1` had an IC50 of 1360 nM.

On to `O=C1c2ccc([N+](=O)[O-])cc2C(=O)N1CCC1CCN(Cc2ccccc2)CC1`, for which the half-maximal inhibitory concentration (IC50) was determined as 13 nM.

`CCN(CCCCCN(C(C)=O)C(=O)/C=C/c1ccc([N+](=O)[O-])cc1)Cc1ccccc1` displayed an IC50 of 539 nM.

For the compound `COc1ccccc1CN1CCC(CCC(=O)c2ccc(N3CCCC3)cc2)CC1`, the IC50 stood at 1900 nM.

On to `CCN(CCCCCC(=O)c1ccc(N2CCCC2)cc1)Cc1ccccc1`, for which the IC50 was 305 nM.

Consider `CCN(CCCCCN1C(=O)c2ccc([N+](=O)[O-])cc2C1=O)Cc1cccc(OC(=O)NC)c1`, for which the half-maximal inhibitory concentration (IC50) was 0.38 nM.

As for `CCN(CCCCCNC(=O)/C=C/c1ccccc1)Cc1ccccc1`, the IC50 came to 11800 nM.

As for `O=C1c2ccccc2C(=O)N1CCC1CCN(Cc2ccccc2)CC1`, the IC50 is 30 nM.

The compound `CCN(CCCCCN1C(=O)c2ccc([N+](=O)[O-])cc2C1=O)Cc1cccc(OC)c1OC` had an IC50 of 274 nM.

In turn, `CCN(CCCCCCCc1ccc(OC)c(OC)c1)Cc1ccccc1OC` displayed an IC50 of 1070 nM.

`CCN(CCCCCN1C(=O)c2ccc([N+](=O)[O-])cc2C1=O)CC1CCCCC1` registered a half-maximal inhibitory concentration (IC50) of 1090 nM.

`CCN(CCCCCCOc1ccc(OC)c(OC)c1)Cc1ccccc1OC` yielded an IC50 of 920 nM.

Turning to `CCN(CCCCCN(C(C)=O)C(=O)/C=C/c1ccccc1)Cc1ccccc1`, 2300 nM corresponded to half-maximal inhibition (IC50).

`COc1ccc(C(=O)CCC2CCN(Cc3ccccc3)CC2)cc1OC` showed a half-maximal inhibitory concentration (IC50) of 52 nM.

The compound `CCN(CCCCCN1C(=O)c2ccc([N+](=O)[O-])cc2C1=O)CCCc1ccccc1` showed a 50% inhibitory concentration (IC50) of 161 nM.

In turn, `CCN(CCCCCN1C(=O)c2ccc([N+](=O)[O-])cc2C1=O)CCc1ccccc1` had a half-inhibitory concentration (IC50) of 770 nM.

Compound `CCN(CCCCCN1C(=O)c2ccccc2C1=O)Cc1ccccc1` showed an IC50 of 3370 nM.

As to `CCN(CCCCCN1C(=O)C2CCCCC2C1=O)Cc1ccccc1` (stereo unspecified), the IC50 amounted to 18500 nM.

In turn, `CCN(CCCCCCN1C(=O)c2ccc([N+](=O)[O-])cc2C1=O)Cc1ccccc1` registered an IC50 of 607 nM.

Turning to `CCN(CCCCCC(=O)c1ccc(OC)c(OC)c1)Cc1ccccc1OC`, the half-maximal inhibitory concentration (IC50) is 24 nM.

For `CCN(CCCCCN1C(=O)c2ccc([N+](=O)[O-])cc2C1=O)Cc1ccccc1OC`, the IC50 worked out at 24 nM.

With `CN(CCCCCCN1C(=O)c2ccc([N+](=O)[O-])cc2C1=O)Cc1ccccc1`, the half-maximal inhibitory concentration (IC50) was 474 nM.

The compound `CCN(CCCCCCC(=O)c1ccc(OC)c(OC)c1)Cc1ccccc1OC` had a 50% inhibitory concentration (IC50) of 10 nM.

For `O=C1c2ccc([N+](=O)[O-])cc2C(=O)N1CC1CCN(Cc2ccccc2)CC1`, the IC50 is 3000 nM.

`O=C1c2ccc([N+](=O)[O-])cc2C(=O)N1C1CCN(Cc2ccccc2)CC1`: it took 27000 nM to reach half-maximal inhibition (IC50).

For `CCCN(CCCCCN1C(=O)c2ccc([N+](=O)[O-])cc2C1=O)Cc1ccccc1`, inhibition was half-maximal at 2650 nM (IC50).

(Values after ChEMBL document CHEMBL1127728, “Docking analysis of a series of benzylamino acetylcholinesterase inhibitors with a phthalimide, benzoyl, or indanone moiety” (J Med Chem, 1994).)
